Reference: patent publication US10966962B2, “Method for treating neurodegenerative diseases” (THE BOARD OF TRUSTEES OF THE LELAND STANFORD JUNIOR …, priority 2014, dated 2021)

How the values were obtained:
microglia = experiment: Ex vivo TNF-α production by microglia from MPTP-treated FF and Cre animals; type: in vivo, mice; conditions: 2-hour ex vivo assay, Day 4
Description: Animals with microglia-specific deletion of Ppargc1a were generated by crossing mice harboring the foxed allele of Ppargc1a (Ppargc1a^LoxP/LoxP) with those expressing Tamoxifen inducible Cre recombinase under the control of Cx3cr1 promoter (Cx3cr1^CreER). To induce Cre-mediated deletion of Ppargc1a in Cx3cr1 expressing cells, Tamoxifen (Sigma) in 200 μl corn oil (50 mg/ml, Sigma) was administered to 3 weeks old (Ppargc1a^LoxP/LoxPCx3cr1^CreER) mice twice at 48-hour intervals (Wolf et al Front Cell Neurosci 2013, 18;7:26. doi: 10.3389/fnce1.2013.00026). Littermates carrying the foxed allele of Ppargc1a alleles but lacking expression of Cre recombinase (Ppargc1a^LoxP/LoxP) were used as controls. Animals were rested for another 5-6 weeks before MPTP was administered. Animals with microglia-specific deletion of Ppargc1a and controls were generated as described in Example 1. […] PBS-perfused brain tissues of sacrificed animals were digested with Collagenase IV and isolated by flow cytometry. For measuring microglial production of TNF-α, MPTP-ZLN (n=5), MPTP-Ctrl (n=10) and Veh (n=6) animals were sacrificed. Isolated microglia were subjected to a 2-hour ex vivo TNF-α production assay. Supernatant samples were collected for TNF-α measurement with CBA technology (BD). […] Unpaired t-tests were used for statistical analyses.

MPTP-treated animals = experiment: Wheel-running test in MPTP model of PD; type: in vivo, mice; conditions: 25 mg/kg orally 7 days, accelerating speed 5-15 rpm, Day 8
Description: The wheel-running test has been widely used as one of the most reliable measurements of behavioral dysfunction in animal models of neurodegeneration ([…] et al, Behav Brain Res, 125:109-25, 2001). In this study, animals were trained to run on a treadmill at specific speed and training duration before undergoing a formal test of motor skills. Motor performance of animals was evaluated by the time (seconds) that they remained running on the treadmill, which required motor coordination and strength. […] Animals with microglia-specific deletion of Ppargc1a were generated as described in Example 1. At 7 weeks of age, these animals were subjected to 1.5 weeks of training on a treadmill at a constant speed 10 rpm (rotations per minute) and then 1.5 weeks of training at an accelerating speed from 5-15 rpm. After the training period at 10 weeks of age, animals were treated with MPTP and tested for motor performance at an accelerating speed from 5-15 rpm. […] Unpaired t-tests were used for statistical analyses.

STZ-treated mice = experiment: Disease severity in acute STZ model of AD; type: in vivo; conditions: STZ-ZLN mice
Description: To induce symptoms of AD, STZ (3 mg/kg, Sigma) was administered via intracerebral injection ([…] et al, Int J Neurosci, PMID 24494726, 2014). This is a well-established model of the sporadic form of AD. Briefly, animals were anesthetized and STZ solution in 5 μl artificial cerebrospinal fluid (Harvard Apparatus) was injected through the skull with a 50 μl syringe. Control animals received a similar volume of artificial cerebrospinal fluid without STZ. The injections were performed twice, on Day 1 and Day 3. […] Treatment with ZLN005 continued on a daily schedule until Day 4, when the animals were evaluated. […] In contrast, in STZ-Ctrl mice, only 10% were active, 70% were lethargic, and 20% of these animals had hind limb paralysis. […] The inventors designed a disease scoring system based on evidence of tissue inflammation: with scores of 1 (mild inflammation, increased vascularization/bleeding of internal organs), 2 (moderate inflammation, severe vascularization/bleeding of internal organs), and 3 (severe inflammation, intestinal or stomach swelling). […] The disease score presented in the example is the total score of the two scoring systems. […] Unpaired t-test was used for statistical analysis.

[1] = system: CD115+CD11b+ blood monocytes; experiment: Blood monocyte frequency in 5XFAD AD transgenic animals; type: in vivo, mice; conditions: 25 mg/kg orally 3 times a week for 4 weeks, 7 weeks of age
Description: AD transgenic animals were orally treated 3 times a week for 4 weeks with 0.5% methylcellulose or ZLN005 (Sigma) at 25 mg/kg in 0.5% methylcellulose, starting at 3 weeks of age. For measuring the frequency of CD115+CD11b+ blood monocytes, 5[…]=5), 5XFAD-Ctrl (n=4), and WT animals (n=4) were sacrificed at 7 weeks of age. The results are summarized in FIG. 14; Y-axis represents % of total circulating monocytes among circulating immune cells. […] ANOVA was used for statistical analysis.

[2] = system: brain perivascular macrophages; experiment: Brain perivascular macrophage iNOS, IL6, TNFα in ALS transgenic animals; type: in vivo, mice; conditions: 25 mg/kg orally 3 times a week for 8 weeks, 13 weeks of age
Description: ALS transgenic animals were purchased from Jackson Laboratories. These animals express the G93A mutation in the gene SOD1 which has been implicated as the cause of the disease in a subset of human subjects with familial ALS. […] These animals represent a gold standard model for therapeutic discovery in the field of ALS research. ALS transgenic animals were orally treated 3 times a week for 8 weeks with 0.5% methylcellulose or ZLN005 (Sigma) at 25 mg/kg in 0.5% methylcellulose, starting at 5 weeks of age. For study of brain perivascular macrophages, ALS-Ctrl (n=8), ALS-ZLN (n=12), and WT animals (n=12) were sacrificed at 13 weeks of age. PBS-perfused brain tissues of sacrificed animals were digested with Collagenase IV and processed for flow cytometry. Brain perivascular macrophages were phenotyped with antibodies directed against mouse iNOS, IL6, and TNFα (Biolegend) for flow cytometric acquisition (LSRII, BD) and analysis (FlowJo). The results are summarized in FIG. 16; Y-axis represents % of brain perivascular macrophages that express iNOS (A), IL6 (B) and TNFα (C). […] ANOVA was used for statistical analyses.

HD transgenic mice = experiment: Wheel-running test in HD transgenic animals (R6/2); type: in vivo; conditions: HD transgenic (R6/2); 25 mg/kg orally 3 times a week for 4 weeks from 6 weeks of age; constant speed 5 rpm
Description: The wheel-running test in this example was performed similarly to that described in Example 8. HD transgenic animals (R6/2) were purchased from Jackson Laboratories. […] HD transgenic mice were orally treated 3 times a week for 4 weeks with either 0.5% methylcellulose (n=8) or ZLN005 (Sigma) at 25 mg/kg in 0.5% methylcellulose (n=7), starting at 6 weeks of age. Subsequently, at 10 weeks of age, these mice were subjected to 2 weeks of training on a treadmill at a constant speed of 5 rpm (rotations per minute). After the training, mice were tested for motor performance at a constant speed of 5 rpm. […] Unpaired t-test was used for statistical analysis.

CC(C)(C)c1ccc(-c2nc3ccccc3[nH]2)cc1 [ZLN005, 2-(4-tert-butylphenyl)-1H-benzimidazole]
TNF-α production in microglia (microglia; MPTP-treated Cre animals (microglial Ppargc1a deletion)): failed to exert its anti-inflammatory effects | TNF-α production in microglia (microglia; MPTP-treated FF animals): suppressed TNF-α production | latency to fall, wheel running (MPTP-treated animals; MPTP-treated Cre animals): not present in Cre animals | latency to fall, wheel running (MPTP-treated animals; MPTP-treated FF animals): performed significantly better than vehicle treated mice | animals active (STZ-treated mice; 25 mg/kg orally daily, Day 4): 33% | animals paralyzed (STZ-treated mice; 25 mg/kg orally daily, Day 4): none | animals showing evidence of lethargy (STZ-treated mice; 25 mg/kg orally daily, Day 4): 66% | mean disease score (STZ-treated mice; day 4, total of inflammation and physical activity scores): 1.6 | percentage of monocytes among circulating immune cells [1]: decreased | IL6 production in brain perivascular macrophages [2]: suppressed, although these differences did not reach statistical significance | TNFα production in brain perivascular macrophages [2]: suppressed, although these differences did not reach statistical significance | iNOS production in brain perivascular macrophages [2]: decreased | latency to fall (HD transgenic mice): 110 s
